{"source": "ChEMBL document CHEMBL1201862", "about": "“PubChem BioAssay data set” (2004)", "key": {"[1]": {"target": "T1, Corticotropin-releasing factor receptor 2/Corticotropin-releasing factor-binding protein (Homo sapiens, UniProt P24387+Q13324)", "T1 sequence (Q13324 whole entry)": "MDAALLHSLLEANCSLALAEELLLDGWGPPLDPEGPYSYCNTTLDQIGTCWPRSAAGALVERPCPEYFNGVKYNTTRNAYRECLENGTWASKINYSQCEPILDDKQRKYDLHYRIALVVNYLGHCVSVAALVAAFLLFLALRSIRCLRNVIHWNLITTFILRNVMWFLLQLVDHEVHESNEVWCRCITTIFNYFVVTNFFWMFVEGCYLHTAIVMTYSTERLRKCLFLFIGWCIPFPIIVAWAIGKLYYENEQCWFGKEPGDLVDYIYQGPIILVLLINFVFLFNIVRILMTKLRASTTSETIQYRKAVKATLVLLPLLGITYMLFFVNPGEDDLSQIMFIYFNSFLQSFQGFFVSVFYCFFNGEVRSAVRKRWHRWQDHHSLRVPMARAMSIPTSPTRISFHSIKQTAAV", "T1 sequence (P24387 whole entry)": "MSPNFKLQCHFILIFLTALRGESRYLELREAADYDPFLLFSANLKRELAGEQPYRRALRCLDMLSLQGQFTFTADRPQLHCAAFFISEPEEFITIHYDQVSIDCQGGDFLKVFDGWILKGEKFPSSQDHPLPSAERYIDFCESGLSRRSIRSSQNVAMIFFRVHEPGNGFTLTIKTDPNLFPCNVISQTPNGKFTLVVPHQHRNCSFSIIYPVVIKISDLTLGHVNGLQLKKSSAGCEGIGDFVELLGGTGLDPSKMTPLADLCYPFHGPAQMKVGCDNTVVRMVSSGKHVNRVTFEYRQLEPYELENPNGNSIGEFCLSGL", "test": "Dose Response confirmation of uHTS hits for small molecule antagonists of the CRF-binding protein and CRF-R2 receptor complex.", "assay_type": "functional", "conditions": "read-out: IC50_Mean"}, "[2]": {"target": "T1, Corticotropin-releasing factor receptor 2/Corticotropin-releasing factor-binding protein", "test": "activators of CRF receptor 2 with binding protein – uHTS hits, confirmation (AID 602473)", "assay_type": "functional", "conditions": "read-out: EC50_Mean"}, "[3]": {"test": "CRF-BP/CRF-R2 complex antagonists, dose response, cell-based, uHTS hits, 384-well (AID 651639)", "assay_type": "functional, Homo sapiens", "conditions": "read-out: IC50_Mean"}, "[4]": {"test": "HEK293 cell cytotoxicity, dose response, cytotoxicity control, plate reader, cherry-picked samples (AID 743446)", "assay_type": "functional, cell-based"}, "[5]": {"test": "LGR2 antagonists, dose response, cell-based, HEK293, CRE-luciferase reporter, cherry pick, set 2 (AID 743343);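 also: transfected cells were stimulated with diluted bursicon conditioned medium after compound addition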", "assay_type": "functional"}, "[6]": {"test": "HepG2 cell cytotoxicity, dose response, cytotoxicity control, plate reader, cherry-pick, antagonist series (AID 743416)", "assay_type": "functional, cell-based"}, "[7]": {"test": "A549 cell cytotoxicity, dose response, cytotoxicity control, plate reader, cherry-pick, antagonist series (AID 743412)", "assay_type": "functional, cell-based"}, "[8]": {"test": "cells", "assay_type": "functional, cell-based"}, "[9]": {"target": "T2, Nuclear receptor subfamily 0 group B member 1 (Homo sapiens, UniProt P51843)", "T2 sequence (P51843 whole entry)": "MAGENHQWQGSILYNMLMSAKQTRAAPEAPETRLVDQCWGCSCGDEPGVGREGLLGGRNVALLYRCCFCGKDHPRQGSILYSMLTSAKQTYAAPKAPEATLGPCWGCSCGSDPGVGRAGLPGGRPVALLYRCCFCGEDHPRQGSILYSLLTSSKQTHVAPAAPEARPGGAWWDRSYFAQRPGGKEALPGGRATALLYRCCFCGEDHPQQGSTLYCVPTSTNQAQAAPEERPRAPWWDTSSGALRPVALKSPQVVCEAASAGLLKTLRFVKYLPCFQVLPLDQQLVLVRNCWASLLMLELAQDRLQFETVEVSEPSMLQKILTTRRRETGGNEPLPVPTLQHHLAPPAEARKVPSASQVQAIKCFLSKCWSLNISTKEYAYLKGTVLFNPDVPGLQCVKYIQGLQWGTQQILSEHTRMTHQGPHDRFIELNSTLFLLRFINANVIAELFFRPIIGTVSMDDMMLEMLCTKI", "assay_type": "functional, cell-based"}, "[10]": {"target": "T3, Low molecular weight phosphotyrosine protein phosphatase (Homo sapiens, UniProt P24666)", "T3 sequence (P24666 whole entry)": "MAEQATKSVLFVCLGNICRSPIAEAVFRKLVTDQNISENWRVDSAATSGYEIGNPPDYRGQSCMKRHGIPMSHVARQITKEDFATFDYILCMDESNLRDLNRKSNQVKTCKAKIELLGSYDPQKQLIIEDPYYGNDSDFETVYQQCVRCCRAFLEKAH", "assay_type": "functional", "conditions": "read-out: IC50_Mean"}, "[11]": {"target": "T3, Low molecular weight phosphotyrosine protein phosphatase", "assay_type": "functional", "conditions": "read-out: IC50_Mean", "remark": "listed apart in the source"}, "[12]": {"target": "Induced myeloid leukemia cell differentiation protein Mcl-1 (Homo sapiens, UniProt Q07820)", "sequence (Q07820 whole entry)": "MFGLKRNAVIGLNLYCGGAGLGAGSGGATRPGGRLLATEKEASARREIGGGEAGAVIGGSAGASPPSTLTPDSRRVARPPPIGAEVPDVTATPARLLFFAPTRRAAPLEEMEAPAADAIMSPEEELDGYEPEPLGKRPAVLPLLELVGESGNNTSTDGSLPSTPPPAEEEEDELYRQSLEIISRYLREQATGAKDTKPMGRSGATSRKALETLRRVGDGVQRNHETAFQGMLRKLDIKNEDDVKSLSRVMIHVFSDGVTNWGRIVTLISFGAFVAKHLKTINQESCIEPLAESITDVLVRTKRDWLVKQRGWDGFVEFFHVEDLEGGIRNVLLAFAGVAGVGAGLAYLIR", "assay_type": "functional"}, "[13]": {"target": "Long-chain-fatty-acid--AMP ligase FadD28 (Mycobacterium tuberculosis, UniProt P9WQ59)", "sequence (P9WQ59 whole entry)": "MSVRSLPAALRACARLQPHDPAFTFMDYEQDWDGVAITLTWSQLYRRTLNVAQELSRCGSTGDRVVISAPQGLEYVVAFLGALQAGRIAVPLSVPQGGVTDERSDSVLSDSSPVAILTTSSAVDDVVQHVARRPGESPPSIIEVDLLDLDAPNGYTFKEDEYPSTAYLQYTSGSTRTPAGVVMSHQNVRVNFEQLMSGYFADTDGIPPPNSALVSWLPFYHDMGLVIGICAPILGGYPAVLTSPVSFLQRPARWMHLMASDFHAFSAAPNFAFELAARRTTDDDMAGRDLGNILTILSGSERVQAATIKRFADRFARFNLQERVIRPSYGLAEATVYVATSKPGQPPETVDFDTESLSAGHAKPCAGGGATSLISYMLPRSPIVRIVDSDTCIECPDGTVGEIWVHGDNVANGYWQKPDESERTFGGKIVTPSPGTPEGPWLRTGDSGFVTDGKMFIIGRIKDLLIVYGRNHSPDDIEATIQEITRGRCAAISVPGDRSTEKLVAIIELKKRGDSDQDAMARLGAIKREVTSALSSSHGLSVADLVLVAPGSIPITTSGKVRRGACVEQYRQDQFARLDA", "test": "Fluorescence polarization aasay to screen for inhibitors that compete for the binding of FadD28 to a bisubstrate Measured in Biochemical System Using Plate Reader - 2147-01_Inhibitor_Dose_CherryPick_Activity.", "assay_type": "functional, Mycobacterium tuberculosis H37Rv"}, "[14]": {"target": "T4, Small ubiquitin-related modifier 1 (Homo sapiens, UniProt P63165)", "T4 sequence (P63165 whole entry)": "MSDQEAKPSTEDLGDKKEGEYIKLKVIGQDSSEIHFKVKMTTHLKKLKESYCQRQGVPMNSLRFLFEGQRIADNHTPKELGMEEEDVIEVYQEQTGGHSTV", "test": "inhibitors of SUMO1 peptide binding, dose response, biochemical, fluorescence polarization, uHTS hits (AID 624382)", "assay_type": "functional", "conditions": "read-out: IC50_Mean"}, "[15]": {"target": "DNA dC->dU-editing enzyme APOBEC-3G (Homo sapiens, UniProt Q9HC16)", "sequence (Q9HC16 whole entry)": "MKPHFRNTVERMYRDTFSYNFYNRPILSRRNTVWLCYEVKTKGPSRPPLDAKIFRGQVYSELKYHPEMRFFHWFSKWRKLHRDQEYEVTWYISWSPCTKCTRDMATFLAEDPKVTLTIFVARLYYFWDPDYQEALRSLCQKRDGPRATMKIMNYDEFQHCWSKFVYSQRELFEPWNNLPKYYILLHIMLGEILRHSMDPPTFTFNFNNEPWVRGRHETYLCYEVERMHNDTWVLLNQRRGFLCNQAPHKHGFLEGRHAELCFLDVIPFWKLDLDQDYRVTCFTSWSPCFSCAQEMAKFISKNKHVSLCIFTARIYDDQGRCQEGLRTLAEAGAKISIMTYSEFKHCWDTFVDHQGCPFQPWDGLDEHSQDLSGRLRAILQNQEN", "assay_type": "functional"}, "[16]": {"target": "DNA dC->dU-editing enzyme APOBEC-3A (Homo sapiens, UniProt P31941)", "sequence (P31941 whole entry)": "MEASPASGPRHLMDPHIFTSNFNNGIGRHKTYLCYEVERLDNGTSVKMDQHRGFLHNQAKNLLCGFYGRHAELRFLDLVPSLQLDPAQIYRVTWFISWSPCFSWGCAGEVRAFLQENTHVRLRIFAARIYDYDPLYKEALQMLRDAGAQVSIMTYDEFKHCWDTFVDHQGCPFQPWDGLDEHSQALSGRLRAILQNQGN", "test": "Dose Response confirmation of small molecule APOBEC3A DNA Deaminase Inhibitors via a fluorescence-based single-stranded DNA deaminase assay. [Related pubchem assays (depositor defined):AID493011, AID493024]", "assay_type": "functional"}, "[17]": {"target": "T4, Small ubiquitin-related modifier 1", "test": "inhibitors of SUMO1 partner interactions, dose response, biochemical, FRET (AID 624383)", "assay_type": "functional", "conditions": "read-out: IC50_Mean"}, "[18]": {"target": "Photoreceptor-specific nuclear receptor (Homo sapiens, UniProt Q9Y5X4)", "sequence (Q9Y5X4 whole entry)": "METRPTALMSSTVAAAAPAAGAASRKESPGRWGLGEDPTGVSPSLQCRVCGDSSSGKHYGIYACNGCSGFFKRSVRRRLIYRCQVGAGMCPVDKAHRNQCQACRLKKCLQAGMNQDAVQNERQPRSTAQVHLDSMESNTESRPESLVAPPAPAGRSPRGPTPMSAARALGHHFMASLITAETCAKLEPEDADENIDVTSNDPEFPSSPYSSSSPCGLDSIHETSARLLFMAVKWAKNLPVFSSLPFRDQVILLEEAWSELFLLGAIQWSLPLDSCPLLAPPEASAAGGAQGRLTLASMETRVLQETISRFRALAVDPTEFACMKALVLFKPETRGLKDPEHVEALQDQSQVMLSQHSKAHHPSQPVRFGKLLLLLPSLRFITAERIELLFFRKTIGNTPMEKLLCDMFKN", "assay_type": "functional, cell-based"}}, "note": "Calls of active or inactive are those of the source."}
{"smiles": "Cc1cc(C(=O)CN2C(=O)NC(C)(CC(C)C)C2=O)c(C)n1-c1ccc2c(c1)OCO2", "note": "(centres undefined)", "values": [{"measurement": "IC50", "setting": "[1]", "result": "12.8 µM (active)"}, {"measurement": "EC50", "setting": "[2]", "result": "> 53 µM (inactive)"}, {"measurement": "IC50", "setting": "[3]", "result": "2.36 µM (active)"}]}
{"smiles": "CCOCCCn1c(SCc2nc3ccccc3s2)nc2ccccc2c1=O", "values": [{"measurement": "AC50", "setting": "[4]", "result": "5.44 µM (active)"}, {"measurement": "EC50", "setting": "[2]", "result": "> 53 µM (inactive)"}, {"measurement": "AC50", "setting": "[5]", "result": "34.6 µM (active)"}, {"measurement": "AC50", "setting": "[6]", "result": "> 52 µM (inactive)"}, {"measurement": "AC50", "setting": "[7]", "result": "29.8 µM (active)"}]}
{"smiles": "O=C(COc1ccc(F)cc1)Nc1ccc2c(c1)OCCO2", "values": [{"measurement": "IC50", "setting": "[8]", "result": "> 67.6 µM (inactive)"}, {"measurement": "IC50", "setting": "[9]", "result": "> 67.6 µM (inactive)"}]}
{"smiles": "Cc1csc2c(=O)sc(NC(=O)c3cccs3)nc12", "values": [{"measurement": "IC50", "setting": "[10]", "result": "8.33 µM (active)"}, {"measurement": "IC50", "setting": "[11]", "result": "36.9 µM (inactive)"}]}
{"smiles": "Cc1ccc(NC2=NC(=O)S/C2=C\\c2ccco2)cc1", "values": [{"measurement": "IC50", "setting": "[10]", "result": "> 80 µM (inactive)"}, {"measurement": "IC50", "setting": "[11]", "result": "23.9 µM (inactive)"}, {"measurement": "IC50", "setting": "[12]", "result": "7.28 µM (active)"}]}
{"smiles": "CCOC(=O)c1ccc(NC(=O)Nc2ccc3c(c2)OCCO3)cc1", "values": [{"measurement": "AC50", "setting": "[13]", "result": "59.3 µM (active)"}]}
{"smiles": "O=C(COC(=O)c1ccc(F)c(S(=O)(=O)N2CCOCC2)c1)Nc1ccc2[nH]c(=O)[nH]c2c1", "values": [{"measurement": "IC50", "setting": "[14]", "result": "> 66.6 µM (inactive)"}, {"measurement": "IC50", "setting": "[15]", "result": "25.9 µM (active)"}, {"measurement": "IC50", "setting": "[16]", "result": "16.1 µM (active)"}, {"measurement": "IC50", "setting": "[17]", "result": "20.5 µM (inactive)"}]}
{"smiles": "OC[C@@H]1CN(Cc2ccc(-c3ccccc3)cc2)C[C@H](n2cnc3c(Nc4ccccc4)ncnc32)O1", "values": [{"measurement": "IC50", "setting": "[18]", "result": "7.72 µM (active)"}]}
{"smiles": "Cc1ccc([C@H]2C(C(=O)O)=CC[C@@H](c3ccc(C)cc3)N2S(=O)(=O)c2ccc(C)cc2)cc1", "values": [{"measurement": "IC50", "setting": "[1]", "result": "34.5 µM (active)"}, {"measurement": "EC50", "setting": "[2]", "result": "50.2 µM (active)"}, {"measurement": "IC50", "setting": "[3]", "result": "> 20 µM (inactive)"}]}
